Series [1] in a line: Pharmacokinetic testing in mice. Particulars: mouse; for C0: read-out: Starting concentration C0; for Cmax: read-out: Peak concentration Cmax; for Vd: read-out: Apparent volume of distribution Vd; for AUC(0-t): read-out: Area under the curve AUC0-last; for half-life: read-out: Half-life T1/2 (converted); for bioavailability: read-out: Bioavailability F %; for Tmax: read-out: Time to peak concentration Tmax. Type of series: in vivo, male CD-1 mice. As for the experimental part: The objective was to study the pharmacokinetic behavior of the compound of the present disclosure in mice and evaluate the pharmacokinetic characteristics, using male CD-1 mice aged 7 to 9 weeks as test animals. The drug concentrations in plasma at different time points after a single intravenous injection (IV) and oral administration (PO) of the compound were determined using LC/MS/MS.
The pharmacokinetic characteristics of the compound in rodents following intravenous injection and oral administration were tested using a standard protocol. Test animals were fasted for 10 to 14 hours before administration and allowed to feed 4 hours post-administration. The compound was prepared into a clear solution with the appropriate solvent for both IV (intravenous injection) and PO (oral gavage) administration. The solvent was 10% DMSO+10% solutol+80% (10% HP-β-CD aqueous solution). Whole blood samples were collected within 24 hours, centrifuged at 6000 g for 3 minutes, and the supernatant was separated to obtain plasma samples. Protein precipitation was performed by adding four times the volume of acetonitrile solution containing internal standard to the plasma samples. After centrifugation, the supernatant was added with an equal volume of water and then centrifuged before being subjected to LC-MS/MS analysis for quantifying plasma drug concentration. Pharmacokinetic parameters such as peak concentration, time to peak concentration, clearance, half-life, area under the drug-time curve, and bioavailability were calculated.

The subject of series [2] is JAK1/2 signaling pathway (IL-6/pSTAT3). Briefly: IL-6-induced STAT phosphorylation in human whole blood. Type of series: cell-based. The protocol: (§1) The purpose of this experiment was to detect the inhibitory effect of the compound on the JAK-STAT signaling pathway activated by cytokines in human whole blood or platelet-rich plasma. Fresh human whole blood/platelets were placed in a 96-well plate. The test compound was added and incubated for 1 hour, followed by stimulation with various cytokines. The corresponding STAT phosphorylation levels in different cell populations were analyzed using flow cytometer by means of surface antibody staining and intracellular phosphorylated antibody staining. The experiments using the cytokines IFN-α, […] as stimulants were conducted in human whole blood, whereas the experiment using the cytokine TPO as a stimulant was conducted in platelet-rich plasma.
• a) Fresh blood from volunteers was collected using EDTA anticoagulant tubes. • b) 90 μL per well of whole blood was rapidly seeded into a 96-well plate and incubated in a cell culture incubator for 15 minutes. […] The plate was centrifuged at 500×g for 8 minutes, and the supernatant was discarded. • g) The cell pellet was washed once with pre-cooled PBS. • h) After discarding the supernatant, anti-human CD3 antibody was added thereto, followed by incubation at room temperature for 40 minutes. • i) The plate was centrifuged at 500×g for 8 minutes, then the supernatant was discarded, and the cells were washed twice with 200 μL of pre-cooled PBS. • j) The cells were resuspended in 200 μL of pre-cooled Perm Buffer III per well and permeabilized on ice for 60 minutes. • k) The plate was centrifuged at 600×g for 8 minutes, then the supernatant was discarded, and the cells were washed twice with pre-cooled PBS. • l) Intracellular staining with anti-pSTAT5 antibody was carried out, followed by incubation at room temperature for 60 minutes. • m) The cells were centrifuged at 600×g for 8 minutes, washed twice with PBS, resuspended in 200 μL of PBS, and detected using the CytoFlex S flow cytometer. • n) Data analysis was conducted using FlowJo and GraphPad Prism 8 software.
Data were analyzed using FlowJo software. […]

The test system of series [3] is JAK2/2 signaling pathway (TPO/pSTAT5). Briefly: TPO-induced STAT phosphorylation in human platelet-rich plasma. Type of series: cell-based. As for the experimental part:
as §1
• a) Fresh blood from volunteers was collected using EDTA anticoagulant tubes and centrifuged at 200 g for 20 minutes to prepare platelet-rich plasma (PRP). • b) 90 μL per well of PRP was rapidly seeded into a 96-well plate and incubated in a cell culture incubator for 15 minutes. […] The plate was then incubated in the incubator for 15 minutes. • d) After incubation, the plate was centrifuged at 1000×g for 10 minutes, then the supernatant was discarded, and the cells were washed twice with 200 μL of PBS. • e) PE-anti-human CD61 antibody was added to each well, followed by incubation at room temperature for 40 minutes. • f) After incubation, the plate was centrifuged at 1000×g for 10 minutes, then the supernatant was discarded, and the cells were washed twice with 200 μL of PBS. • g) The cells were resuspended in 200 μL of pre-cooled Perm Buffer III and permeabilized on ice for 60 minutes. • h) The plate was centrifuged at 1000×g for 10 minutes, then the supernatant was discarded, and the cells were washed twice with pre-cooled PBS. • i) Intracellular anti-pSTAT5 phosphorylated antibody was added thereto, followed by incubation at room temperature for 60 minutes. • j) The cells were washed twice with PBS and resuspended in 200 μL of PBS, and then detected using the CytoFlex S flow cytometer. […]

The mark [4] stands for this setting: male, CD-1, plasma, PO 10 mg/kg.

This note sets out measurements from patent US20240335462A1, “SULFUR/PHOSPHORUS-CONTAINING ARYL COMPOUND AND APPLICATION THEREOF” (MEDSHINE DISCOVERY INC., priority 2021, published 2024).

Where two headings read alike, the source gives them in different places.

Broadly, the IC50 is the concentration that gives 50% inhibition. For `CNC(=O)c1nnc(NC(=O)C2CC2)cc1Nc1cccc(-c2ncc(S(=N)(=O)C(C)C)cn2)c1OC` (single isomer, unassigned) [WX-011A], in series [1] (IV 3 mg/kg), the “Apparent clearance Cl” value came out at 14.1 mL/min/kg, the “Apparent volume of distribution Vd” value was 0.8 L/kg, the “Area under the curve AUC0-last” value amounted to 6.908 µM·h and the “Half-life T1/2” value stood at 252 min. The C0 in series [1] (IV 3 mg/kg) is 9.92 µM. In series [1] (PO 10 mg/kg), the “Area under the curve AUC0-last” value was found to be 26.715 µM·h, the “Bioavailability F %” value is listed as 51%, the “Time to peak concentration Tmax” value amounted to 18 min and the Cmax is 16.8 µM. This compound gave an IC50 in series [2] of 10.8 µM. This compound also gave an IC50 in series [3] of more than 100 µM.

Usually bioavailability stands for the share of a dose that reaches the circulation, judged against a reference dose that is usually intravenous. As to `CNC(=O)c1cnc(NC(=O)C2CC2)cc1Nc1cccc(-c2ncc(S(=O)(=O)C(C)C)cn2)c1OC` [WX-019], in series [1] (male, CD-1, plasma, IV 3 mg/kg), the Vd turned out to be 0.4 L/kg, the AUC(0-t) was 21 µM·h, the half-life was 66 min and the C0 was 16.3 µM. In series [1] (setting [4]), the AUC(0-t) turned out to be 61.2 µM·h, the bioavailability came to 87%, the Cmax came to 17.3 µM and the Tmax stood at 48 min. In series [1] (IV 3 mg/kg), the “Apparent clearance Cl” value is 4.7 mL/min/kg. For the same compound, in series [2], the IC50 came out at 33.9 µM. This compound had an IC50 in series [3] of more than 100 µM.

Turning to `CNC(=O)c1cnc(NC(=O)C2CC2)cc1Nc1cccc(-c2ccc(S(=O)(=O)C(C)C)cn2)c1OC` [WX-020], the IC50 in series [2] and in series [3] was more than 100 µM in each case.

Regarding `CNC(=O)c1nnc(NC(=O)C2CC2)cc1Nc1cccc(-c2ccc(P(=O)(C3CC3)C3CC3)cn2)c1OC` [WX-021], in series [1] (male, CD-1, plasma, IV 3 mg/kg), the Vd was determined as 0.9 L/kg, the AUC(0-t) came out at 11.9 µM·h, the half-life is 174 min and the C0 was determined as 9.89 µM. For the same compound, in series [1] (setting [4]), the AUC(0-t) was found to be 20.7 µM·h, the bioavailability worked out at 52%, the Cmax stood at 11.3 µM and the Tmax came out at 18 min. Besides, the “Apparent clearance Cl” value in series [1] (IV 3 mg/kg) was found to be 8.5 mL/min/kg.

With `CNC(=O)c1cnc(NC(=O)C2CC2)cc1Nc1cccc(-c2ccc(S(=O)(=O)C(C)C)cn2)c1OC.Cl` [Hydrochloride of WX-020], in series [1] (IV 3 mg/kg), the “Apparent clearance Cl” value was determined as 7.0 mL/min/kg, the “Apparent volume of distribution Vd” value was determined as 1.1 L/kg, the “Area under the curve AUC0-last” value turned out to be 14.13 µM·h and the “Half-life T1/2” value amounted to 138 min. Besides, in series [1] (IV 3 mg/kg), the C0 was 8.04 µM. In series [1] (PO 10 mg/kg), the “Area under the curve AUC0-last” value turned out to be 56.784 µM·h, the “Bioavailability F %” value was found to be 121%, the “Time to peak concentration Tmax” value amounted to 30 min and the Cmax came out at 15.5 µM.
